The record followed here is PubChem BioAssay (NCI).

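Protocol summary: plate cells (96-well), add compound at 5 concentrations, incubate 48 h, interpolate endpoints linearly. The concentration for 50% growth inhibition is given as GI50. Definition used: TGI = concentration required for complete inhibition of growth.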 A value given as a limit tells only on which side of the number the result lay.

Common to all, as to test: DTP human tumour cell line panel, 48 h
In test [1] the test system is MALME-3M melanoma.
For test [2], the system named is HCT-15 colon.
For test [3], the system named is UO-31 renal.
Test [4] concerns SK-MEL-28 melanoma.
For test [5], the system named is A498 renal.
Test [6] has as its system SF-539 CNS.
Test [7] relates to ACHN renal.
The test system of test [8] is SF-295 CNS.
Test [9] relates to PC-3 prostate.
Test [10] has as its system NCI/ADR-RES ovarian.

For orientation: TGI means the concentration giving total growth inhibition. Regarding `C=CC1C(OC2OC(CO)C(O)C(O)C2O)OC=C(C(=O)OC)C1CC=O` (centres undefined), the TGI in test [1], in [2], in test [3], in test [4], in test [5] and in test [6] was more than 100 µM throughout. Besides, the TGI in [7] and in test [8] was more than 100 µM each time.
For `COc1cc(/C=C/C(=O)c2sc(NNC(C)=O)nc2C)ccc1O`, the concentration for total growth inhibition (TGI) in [1], in [2], in [3], in test [4], in test [5] and in test [6] was more than 100 µM each time. The TGI in test [7] and in test [8] was more than 100 µM each time.
For `C=C1CCc2occ(C)c2C2C1C1=C(CC(C)C1=O)C1OC12C` (centres undefined), the TGI in test [1], in test [2], in [3], in test [4], in test [5] and in test [6] was more than 100 µM each time. In addition, the TGI in [7] and in test [8] was more than 100 µM throughout.
Usually GI50 stands for the concentration giving 50% growth inhibition. As to `CCOC(=O)c1nc(Nc2ccc(Cl)cc2)c2ccccc2n1`, the GI50 in [9] is 11.6 µM; in test [2], 14.9 µM; in [10], 13.2 µM; in [3] it was 8.87 µM; in test [4], 7.5 µM; in test [6] it was 10.6 µM. Moreover, the GI50 is 9.3 µM in [7] and 8.09 µM in [8]. For the same compound, the TGI in test [9] is more than 50 µM; in test [2], more than 50 µM; in test [10], 22.9 µM; in test [3], 18.8 µM; in test [4], 17.6 µM; in test [6], 20.9 µM. Further, the TGI in test [7] stood at 19.2 µM; in [8], 15.6 µM.
For `C=CCNC(=O)NCCCC(NC(C)=O)C(=O)NCc1ccccc1` (centres undefined), the TGI in test [1], in test [2], in test [3], in [4], in [5] and in [6] was more than 100 µM each time. Also, the TGI in test [7] and in [8] was more than 100 µM throughout.
Turning to `C1CCOC2(CCC3(CC2)OCCCCO3)OC1`, the TGI in test [1], in test [2], in test [3], in test [4], in test [5] and in test [6] was more than 100 µM throughout. The compound further had a TGI in test [7] of more than 100 µM.
As for `CC(=O)NC1CC2Oc3ccc(C)cc3C(C)(O2)C1O` (centres undefined), the TGI in test [1], in test [2], in [3], in test [4], in [6] and in [7] was more than 100 µM each time. This compound also came in with a TGI in [8] of more than 100 µM.
Turning to `C=CCC(OCCOCC)c1cc(OCCOCC)ccc1OC` (centres undefined), the TGI in [1], in test [2], in test [3], in [4], in test [6] and in [7] was more than 100 µM throughout. In [8], this compound showed a TGI of more than 100 µM.
For the compound `C/C=C/C=C/CCCCCCCCCCCCCC1(OC)C=CC(CC(=O)OC)OO1` (centres undefined), the total growth inhibition concentration (TGI) in test [1] is 50.8 µM; in test [2] it was 11.2 µM; in [3], 7.94 µM; in test [4], 28.7 µM; in [6] it was 28.6 µM; in test [7], 16.7 µM. This compound gave a TGI in test [8] of 6.34 µM. For the same compound, the GI50 in [2] is 3.08 µM; in test [7], 6 µM; in [8], 2.58 µM.
`C[C@@H](NC1CCC[C@H]1O)c1ccccc1` (some centres undefined): the TGI in [1], in [2], in test [3], in test [4], in test [7] and in test [8] was more than 100 µM each time.
Take `O=C1NC2C=CN(Cc3ccccc3)C=C2C(=O)N2CCCC12` (centres undefined): the TGI in test [1], in test [2], in test [3], in test [4], in test [5] and in [6] was more than 100 µM throughout. Moreover, the TGI in test [7] and in test [8] was more than 100 µM in each case.
Regarding `CC(C)C1COC(c2cccc(C3=N[C@@H](C(C)C)CO3)n2)=N1` (some centres undefined), the TGI in test [1], in test [2], in test [3], in [4], in test [5] and in test [6] was more than 100 µM in each case. Also, the total growth inhibition concentration (TGI) in [7] and in [8] was more than 100 µM throughout.
For `CCN(CC)CC(C(=O)Nc1c(C)cccc1C)/C(C)=N\NC(=O)c1ccncc1` (centres undefined), the TGI in [1], in test [2], in [3], in test [4], in test [5] and in test [6] was more than 100 µM each time. In addition, the total growth inhibition concentration (TGI) in [7] and in test [8] was more than 100 µM in each case.
For the compound `CCC1CCc2c(OC)ccc(OCC(=O)O)c2C1=O` (centres undefined), the TGI in test [1], in [2], in test [3], in test [4], in test [6] and in [7] was more than 100 µM in each case. This compound displayed a TGI in test [8] of more than 100 µM.
With `CS/C(=N\c1nccs1)NC(=O)c1cccc(Cl)c1`, the concentration for total growth inhibition (TGI) in test [1], in [2], in test [3], in test [4], in test [5] and in [6] was more than 100 µM each time. Moreover, the TGI in [7] and in test [8] was more than 100 µM in each case.
